From ChEMBL document CHEMBL1201862, “PubChem BioAssay data set” (2004) come the findings set out here.

Active and inactive are the calls of the source. Where only a bound is given, the exact number is not on record here.

The target in assay [1] is T1, Intestinal-type alkaline phosphatase (Mus musculus, UniProt P24822). Kind of assay: PubChem AID 488785. It counts as functional.
Assay [2] concerns the target T2, Alkaline phosphatase, tissue-nonspecific isozyme (Homo sapiens, UniProt P05186).
T2 sequence (P05186 whole entry): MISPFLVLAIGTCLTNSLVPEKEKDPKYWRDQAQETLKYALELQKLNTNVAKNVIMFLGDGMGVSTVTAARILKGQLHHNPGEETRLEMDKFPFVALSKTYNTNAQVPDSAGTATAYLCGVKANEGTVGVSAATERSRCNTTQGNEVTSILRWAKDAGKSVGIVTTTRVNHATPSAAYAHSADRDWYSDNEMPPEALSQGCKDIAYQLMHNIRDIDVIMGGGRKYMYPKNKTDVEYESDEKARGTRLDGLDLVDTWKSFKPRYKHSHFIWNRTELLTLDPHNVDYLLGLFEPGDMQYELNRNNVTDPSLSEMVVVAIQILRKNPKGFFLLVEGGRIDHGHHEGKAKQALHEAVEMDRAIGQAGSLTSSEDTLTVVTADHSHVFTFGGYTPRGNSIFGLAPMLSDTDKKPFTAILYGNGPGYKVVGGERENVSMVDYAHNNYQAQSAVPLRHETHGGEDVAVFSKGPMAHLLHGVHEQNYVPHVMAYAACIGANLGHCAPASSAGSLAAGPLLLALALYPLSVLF
The assay can be described thus: TNAP enzyme activators, dose response, selectivity assay for mouse IAP activator project, biochemical, TNAP isozyme, mouse IAP uHTS hits (AID 488880). Type of assay: functional.

The target of assay [3] is T3, Intestinal-type alkaline phosphatase (Homo sapiens, UniProt P09923). The assay can be described thus: inhibition of human intestinal alkaline phosphatase – biochemical, dose response (AID 488876). It counts as functional.
T3 sequence (P09923 whole entry): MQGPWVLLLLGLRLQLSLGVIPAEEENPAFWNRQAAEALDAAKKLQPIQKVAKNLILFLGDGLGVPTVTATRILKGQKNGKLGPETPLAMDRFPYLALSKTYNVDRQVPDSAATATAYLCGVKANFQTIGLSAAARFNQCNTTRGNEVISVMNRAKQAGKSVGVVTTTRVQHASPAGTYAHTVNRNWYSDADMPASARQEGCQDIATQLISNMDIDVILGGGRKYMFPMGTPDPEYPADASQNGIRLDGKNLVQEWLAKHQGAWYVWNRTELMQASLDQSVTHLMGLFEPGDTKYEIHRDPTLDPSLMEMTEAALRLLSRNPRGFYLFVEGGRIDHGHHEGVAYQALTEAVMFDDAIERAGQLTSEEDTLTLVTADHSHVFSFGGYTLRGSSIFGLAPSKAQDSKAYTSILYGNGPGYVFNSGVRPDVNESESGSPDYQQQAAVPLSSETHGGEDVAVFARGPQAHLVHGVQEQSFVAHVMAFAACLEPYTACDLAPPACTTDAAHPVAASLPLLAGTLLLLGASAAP
In assay [4] the target is Eukaryotic translation initiation factor 4H (Homo sapiens, UniProt Q15056). Kind of assay: human eIF4H binding inhibitors, primary screen, translation initiation inhibitor project, biochemical, uHTS, fluorescence polarization (AID 2012). On the technique in general: In fluorescence polarisation assays a small probe gives low polarisation when free and higher when bound to something large.

Assay [5] is described as follows: insulin promoter down-regulators in MIN6 cells, imaging, high-content screening, mouse beta cells (AID 1628). Type of assay: functional.
Assay [6] is described as follows: cytotoxicity in MIN6 insulinoma cells, dose response, cytotoxicity control, cell-based, mouse insulinoma (AID 2122).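 Further: confirmatory high-throughput counterscreen run to flag cytotoxic compounds; mouse MIN-6 beta cells carrying an insulin promoter eGFP reporter.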 Type of assay: functional.
The target of assay [7] is Polyadenylate-binding protein 1 (Homo sapiens, UniProt P11940). The assay can be described thus: PABP poly(A) RNA binding inhibitors, primary screen, biochemical, fluorescence polarization, uHTS (AID 2014).
Polyadenylate-binding protein 1, sequence (P11940 whole entry): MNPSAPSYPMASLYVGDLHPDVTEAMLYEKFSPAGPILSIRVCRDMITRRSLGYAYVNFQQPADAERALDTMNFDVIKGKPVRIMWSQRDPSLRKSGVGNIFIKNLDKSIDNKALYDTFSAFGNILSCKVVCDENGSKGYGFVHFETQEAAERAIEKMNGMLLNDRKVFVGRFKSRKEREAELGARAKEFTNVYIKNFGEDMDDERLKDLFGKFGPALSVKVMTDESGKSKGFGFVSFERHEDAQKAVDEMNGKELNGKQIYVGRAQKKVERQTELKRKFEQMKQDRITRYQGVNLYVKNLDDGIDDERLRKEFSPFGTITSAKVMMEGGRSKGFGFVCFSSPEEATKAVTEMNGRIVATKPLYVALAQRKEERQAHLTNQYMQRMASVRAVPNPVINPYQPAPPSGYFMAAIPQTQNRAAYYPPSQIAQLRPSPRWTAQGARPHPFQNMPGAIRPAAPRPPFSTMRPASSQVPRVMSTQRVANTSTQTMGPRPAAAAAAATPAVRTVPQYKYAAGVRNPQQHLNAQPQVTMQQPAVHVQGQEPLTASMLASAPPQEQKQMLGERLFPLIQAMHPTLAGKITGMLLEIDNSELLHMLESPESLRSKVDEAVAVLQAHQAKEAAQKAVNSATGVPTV
For assay [8], the target named is DNA dC->dU-editing enzyme APOBEC-3A (Homo sapiens, UniProt P31941). The assay can be described thus: Dose Response confirmation of small molecule APOBEC3A DNA Deaminase Inhibitors via a fluorescence-based single-stranded DNA deaminase assay. [Related pubchem assays (depositor defined):AID493011, AID493024]. It counts as functional.
DNA dC->dU-editing enzyme APOBEC-3A, sequence (P31941 whole entry): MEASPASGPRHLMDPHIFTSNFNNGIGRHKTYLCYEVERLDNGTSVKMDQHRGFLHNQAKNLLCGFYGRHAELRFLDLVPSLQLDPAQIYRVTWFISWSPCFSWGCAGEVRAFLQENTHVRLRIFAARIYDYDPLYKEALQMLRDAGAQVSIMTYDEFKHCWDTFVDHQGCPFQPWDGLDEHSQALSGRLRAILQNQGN
In assay [9] the target is DNA dC->dU-editing enzyme APOBEC-3G (Homo sapiens, UniProt Q9HC16). Type of assay: functional.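 Further: Dose-response counterscreen measuring inhibition of APOBEC3G DNA deaminase activity, run while confirming APOBEC3A inhibitors.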
DNA dC->dU-editing enzyme APOBEC-3G, sequence (Q9HC16 whole entry): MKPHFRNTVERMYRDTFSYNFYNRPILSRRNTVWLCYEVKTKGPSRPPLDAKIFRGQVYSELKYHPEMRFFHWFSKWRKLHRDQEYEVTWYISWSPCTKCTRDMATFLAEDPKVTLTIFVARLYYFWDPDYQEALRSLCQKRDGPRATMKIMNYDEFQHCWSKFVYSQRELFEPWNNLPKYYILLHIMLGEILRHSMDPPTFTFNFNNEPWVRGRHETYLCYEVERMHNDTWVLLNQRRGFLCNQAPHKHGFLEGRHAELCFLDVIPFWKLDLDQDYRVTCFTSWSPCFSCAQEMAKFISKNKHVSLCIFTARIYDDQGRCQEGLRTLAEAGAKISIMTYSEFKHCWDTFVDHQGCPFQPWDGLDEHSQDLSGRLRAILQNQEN
Assay [10] concerns the target Tumor necrosis factor (Homo sapiens, UniProt P01375). Kind of assay: TNFa-triggered NF-kB activation inhibitors, SAR follow-up, cell-based, revised (AID 2337). It counts as functional.
The subject of assay [11] is HEK293. Kind of assay: cells. Conditions: Homo sapiens.
Assay [12] is described as follows: growth induction of Burl-1 ts yeast mutant, dose response, counter-screen for SUMOylation pathway inhibitor project, whole organism, S. cerevisiae, luminescence (AID 463199). Type of assay: functional. Background: Counterscreens check selectivity or assay interference.
The target in assay [13] is Lysine-specific demethylase 4A (Homo sapiens, UniProt O75164). The assay can be described thus: JMJD2A histone demethylase inhibitors, dose response, selectivity assay for GASC-1 inhibitor project, biochemical, DELFIA europium, cherry-picked samples (AID 488840).
Assay [14] concerns the target Lysine-specific demethylase 4C (Homo sapiens, UniProt Q9H3R0). Kind of assay: GASC-1 (JMJD2C) histone demethylase inhibitors, dose response, biochemical, DELFIA europium, cherry-picked samples (AID 488835). Type of assay: functional.
The target of assay [15] is T4, Replicative DNA helicase DnaB (Mycobacterium tuberculosis, UniProt P9WMR3).
T4 sequence (P9WMR3 whole entry): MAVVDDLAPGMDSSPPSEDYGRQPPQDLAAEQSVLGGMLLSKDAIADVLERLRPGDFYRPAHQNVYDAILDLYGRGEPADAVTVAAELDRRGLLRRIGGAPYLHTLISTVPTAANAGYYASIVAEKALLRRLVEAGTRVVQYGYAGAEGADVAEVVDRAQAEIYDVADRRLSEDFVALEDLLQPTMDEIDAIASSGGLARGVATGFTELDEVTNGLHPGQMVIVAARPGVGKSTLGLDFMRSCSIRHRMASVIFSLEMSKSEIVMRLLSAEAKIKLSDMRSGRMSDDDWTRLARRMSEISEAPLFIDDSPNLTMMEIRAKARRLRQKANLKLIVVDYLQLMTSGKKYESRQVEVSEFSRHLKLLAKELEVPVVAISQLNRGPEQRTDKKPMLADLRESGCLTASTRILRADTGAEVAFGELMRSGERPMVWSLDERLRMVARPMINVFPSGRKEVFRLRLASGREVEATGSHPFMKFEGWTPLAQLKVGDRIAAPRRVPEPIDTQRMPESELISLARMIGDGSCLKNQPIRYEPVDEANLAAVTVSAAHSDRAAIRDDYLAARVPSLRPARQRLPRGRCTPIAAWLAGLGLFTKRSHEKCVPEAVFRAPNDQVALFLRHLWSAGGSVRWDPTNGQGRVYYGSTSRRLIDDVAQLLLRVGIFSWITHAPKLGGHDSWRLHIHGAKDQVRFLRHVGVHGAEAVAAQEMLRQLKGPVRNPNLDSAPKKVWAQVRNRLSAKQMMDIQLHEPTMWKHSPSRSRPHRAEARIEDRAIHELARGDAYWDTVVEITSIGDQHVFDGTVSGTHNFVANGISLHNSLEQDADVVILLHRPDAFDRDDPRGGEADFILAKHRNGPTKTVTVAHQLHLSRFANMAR
Kind of assay: DnaB intein splicing inhibitors, dose response, biochemical, cell-free fluorescence (AID 449749). It counts as functional.

In assay [16] the target is T5, Protein RecA (Mycobacterium tuberculosis, UniProt P9WHJ3).
T5 sequence (P9WHJ3 whole entry): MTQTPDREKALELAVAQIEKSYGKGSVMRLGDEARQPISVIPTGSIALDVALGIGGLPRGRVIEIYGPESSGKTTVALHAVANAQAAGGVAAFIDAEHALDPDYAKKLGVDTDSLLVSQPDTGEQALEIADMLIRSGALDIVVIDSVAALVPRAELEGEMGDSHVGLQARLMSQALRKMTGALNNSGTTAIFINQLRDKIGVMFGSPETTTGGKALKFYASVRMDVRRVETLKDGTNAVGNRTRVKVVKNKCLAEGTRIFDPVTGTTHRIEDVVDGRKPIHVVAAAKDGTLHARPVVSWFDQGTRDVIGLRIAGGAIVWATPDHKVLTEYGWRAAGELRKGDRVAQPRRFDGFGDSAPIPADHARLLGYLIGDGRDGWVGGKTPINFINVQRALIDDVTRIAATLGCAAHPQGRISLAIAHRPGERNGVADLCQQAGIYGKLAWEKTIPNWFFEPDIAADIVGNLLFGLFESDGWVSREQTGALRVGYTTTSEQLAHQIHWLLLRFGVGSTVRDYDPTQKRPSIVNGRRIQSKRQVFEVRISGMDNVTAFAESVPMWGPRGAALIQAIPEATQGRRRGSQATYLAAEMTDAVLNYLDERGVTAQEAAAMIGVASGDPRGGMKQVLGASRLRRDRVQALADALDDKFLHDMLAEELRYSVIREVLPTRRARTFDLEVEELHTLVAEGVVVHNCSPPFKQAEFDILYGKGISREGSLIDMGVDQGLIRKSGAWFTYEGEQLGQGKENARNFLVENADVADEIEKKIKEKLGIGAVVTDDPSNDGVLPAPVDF
Kind of assay: Fluorescence Cell-Free Homogeneous Dose Retest to Identify Inhibitors of RecA-Intein Splicing Activity. [Related pubchem assays (depositor defined):AID2097, AID2223, AID489010, AID492950]. It counts as functional.

Assay [17] concerns the target Large T antigen (Simian virus 40, UniProt P03070). It counts as functional, Betapolyomavirus macacae.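 Further: Confirmatory-stage PubChem screen for compounds that inhibit SV40 T antigen.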
Assay [18] addresses T1, Intestinal-type alkaline phosphatase. The assay can be described thus: PubChem AID 488874. It counts as functional.
Assay [19] has as its target T3, Intestinal-type alkaline phosphatase. The assay can be described thus: human IAP inhibitors, dose response, biochemical, luminescent, uHTS hits, set 2 (AID 488793). It counts as functional.
Assay [20] has the same target. Kind of assay: Dose Response confirmation of uHTS hits from a small molecule inhibitors of human intestinal alkaline phosphatase via a luminescent assay. [Related pubchem assays (depositor defined):AID2544, AID2574]. Type of assay: functional.
The target is the same in assay [21]. Kind of assay: activation of human intestinal alkaline phosphatase – biochemical, dose response (AID 488873). It counts as functional.
Assay [22] has as its target T2, Alkaline phosphatase, tissue-nonspecific isozyme. The assay can be described thus: TNAP enzyme inhibition by screening hits, dose response, selectivity assay for mouse IAP inhibitor project, biochemical, human TNAP, uHTS hits (AID 488906). Type of assay: functional.
The target is the same in assay [23]. The assay can be described thus: inhibition of tissue-nonspecific alkaline phosphatase – biochemical, dose response (AID 488882). It counts as functional.
Assay [24] has as its target T6, Cytochrome P450 1A2 (Homo sapiens, UniProt P05177).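 Further: PubChem cytochrome P450 panel assay, CYP1A2 panel member.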
T6 sequence (P05177 whole entry): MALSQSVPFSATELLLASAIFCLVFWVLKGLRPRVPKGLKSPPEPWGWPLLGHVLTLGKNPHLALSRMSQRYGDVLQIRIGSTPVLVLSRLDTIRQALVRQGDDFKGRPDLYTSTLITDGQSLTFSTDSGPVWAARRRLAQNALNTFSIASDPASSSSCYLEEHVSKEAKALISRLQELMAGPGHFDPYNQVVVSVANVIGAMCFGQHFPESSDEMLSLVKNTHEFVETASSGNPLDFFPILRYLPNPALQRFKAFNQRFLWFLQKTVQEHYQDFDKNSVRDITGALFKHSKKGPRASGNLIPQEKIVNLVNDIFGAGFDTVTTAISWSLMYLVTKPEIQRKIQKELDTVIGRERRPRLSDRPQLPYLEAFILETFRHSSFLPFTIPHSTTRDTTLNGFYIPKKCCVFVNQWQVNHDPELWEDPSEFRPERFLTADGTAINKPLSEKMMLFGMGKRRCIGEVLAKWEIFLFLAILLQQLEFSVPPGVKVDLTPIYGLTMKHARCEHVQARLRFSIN

T1 sequence (P24822 whole entry): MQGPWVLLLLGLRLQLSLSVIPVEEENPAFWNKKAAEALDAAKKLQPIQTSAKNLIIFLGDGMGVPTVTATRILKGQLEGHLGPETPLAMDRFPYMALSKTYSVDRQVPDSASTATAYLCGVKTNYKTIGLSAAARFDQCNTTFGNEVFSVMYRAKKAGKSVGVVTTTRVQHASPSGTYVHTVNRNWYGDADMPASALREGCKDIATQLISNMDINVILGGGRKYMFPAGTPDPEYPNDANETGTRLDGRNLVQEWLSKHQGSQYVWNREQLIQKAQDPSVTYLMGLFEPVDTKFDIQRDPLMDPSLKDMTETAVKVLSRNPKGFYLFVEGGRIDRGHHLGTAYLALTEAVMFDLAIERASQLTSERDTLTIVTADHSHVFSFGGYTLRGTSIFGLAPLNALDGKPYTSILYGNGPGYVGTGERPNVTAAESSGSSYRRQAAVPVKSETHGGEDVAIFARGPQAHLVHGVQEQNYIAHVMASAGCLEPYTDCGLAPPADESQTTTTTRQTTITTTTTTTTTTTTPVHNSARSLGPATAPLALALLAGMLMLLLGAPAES
Lysine-specific demethylase 4C, sequence (Q9H3R0 whole entry): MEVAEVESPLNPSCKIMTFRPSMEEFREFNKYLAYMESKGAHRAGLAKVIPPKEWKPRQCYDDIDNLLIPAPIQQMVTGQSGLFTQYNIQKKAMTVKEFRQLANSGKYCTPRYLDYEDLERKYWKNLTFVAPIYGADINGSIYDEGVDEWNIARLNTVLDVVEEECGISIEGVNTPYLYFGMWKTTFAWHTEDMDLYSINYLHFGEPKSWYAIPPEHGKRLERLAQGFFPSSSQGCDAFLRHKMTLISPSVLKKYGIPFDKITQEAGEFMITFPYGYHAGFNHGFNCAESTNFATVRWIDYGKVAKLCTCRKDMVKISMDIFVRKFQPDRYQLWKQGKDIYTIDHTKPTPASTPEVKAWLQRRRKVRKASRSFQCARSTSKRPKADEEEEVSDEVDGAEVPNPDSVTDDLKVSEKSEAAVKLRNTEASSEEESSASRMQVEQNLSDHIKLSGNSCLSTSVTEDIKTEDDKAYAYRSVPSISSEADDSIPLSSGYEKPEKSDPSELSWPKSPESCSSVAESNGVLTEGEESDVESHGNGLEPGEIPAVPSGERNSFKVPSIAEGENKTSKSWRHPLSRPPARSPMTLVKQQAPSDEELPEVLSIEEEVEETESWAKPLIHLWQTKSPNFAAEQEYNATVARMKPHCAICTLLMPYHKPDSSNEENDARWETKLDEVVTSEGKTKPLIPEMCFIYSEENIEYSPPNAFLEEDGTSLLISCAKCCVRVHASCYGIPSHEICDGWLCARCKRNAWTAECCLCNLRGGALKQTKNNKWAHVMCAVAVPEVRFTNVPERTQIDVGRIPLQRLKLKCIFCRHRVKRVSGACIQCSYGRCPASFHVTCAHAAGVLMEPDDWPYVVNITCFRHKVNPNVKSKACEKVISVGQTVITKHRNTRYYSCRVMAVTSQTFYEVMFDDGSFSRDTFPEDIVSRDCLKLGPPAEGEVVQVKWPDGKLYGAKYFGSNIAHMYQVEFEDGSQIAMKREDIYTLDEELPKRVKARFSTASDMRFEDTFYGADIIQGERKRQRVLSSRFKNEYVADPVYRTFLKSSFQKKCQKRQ
Large T antigen, sequence (P03070 whole entry): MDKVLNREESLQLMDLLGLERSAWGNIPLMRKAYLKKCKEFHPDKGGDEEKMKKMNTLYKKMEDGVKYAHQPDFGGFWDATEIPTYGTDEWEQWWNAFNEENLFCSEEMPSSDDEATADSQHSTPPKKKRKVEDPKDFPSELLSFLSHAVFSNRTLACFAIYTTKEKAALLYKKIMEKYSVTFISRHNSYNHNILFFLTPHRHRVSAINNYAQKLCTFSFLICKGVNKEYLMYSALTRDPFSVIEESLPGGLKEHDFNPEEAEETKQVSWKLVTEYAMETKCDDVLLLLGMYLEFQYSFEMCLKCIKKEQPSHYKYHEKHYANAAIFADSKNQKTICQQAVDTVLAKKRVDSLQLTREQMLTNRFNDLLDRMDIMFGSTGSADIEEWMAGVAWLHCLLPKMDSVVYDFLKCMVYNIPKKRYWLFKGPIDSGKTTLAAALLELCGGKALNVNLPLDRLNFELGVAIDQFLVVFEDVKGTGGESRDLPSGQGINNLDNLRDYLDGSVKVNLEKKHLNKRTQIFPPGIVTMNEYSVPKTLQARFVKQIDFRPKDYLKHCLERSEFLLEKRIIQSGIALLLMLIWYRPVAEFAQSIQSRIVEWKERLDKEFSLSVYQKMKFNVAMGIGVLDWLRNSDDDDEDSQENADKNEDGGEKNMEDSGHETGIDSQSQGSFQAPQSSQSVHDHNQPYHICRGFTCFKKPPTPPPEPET
Tumor necrosis factor, sequence (P01375 whole entry): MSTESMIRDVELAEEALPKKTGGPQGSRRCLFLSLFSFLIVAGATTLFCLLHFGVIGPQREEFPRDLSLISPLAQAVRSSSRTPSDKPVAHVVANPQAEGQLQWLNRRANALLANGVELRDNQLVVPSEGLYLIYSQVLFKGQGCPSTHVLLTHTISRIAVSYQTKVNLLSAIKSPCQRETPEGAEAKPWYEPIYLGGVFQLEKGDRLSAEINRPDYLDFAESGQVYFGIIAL

Turning to `N#Cc1cccc(NC(=O)CCNS(=O)(=O)c2ccc3nc(O)oc3c2)c1`, the values for the IC50 in assay [1] and in assay [3] were 21.7 µM (active) and > 100 µM (inactive), respectively. Further, the EC50 in assay [2] was > 100 µM (inactive).
Turning to `CCCCCn1ccc(=N)cc1`, the IC50 in assay [4] was > 100 µM (inactive); in [5], 3.31 µM (active); in [6], 2.58 µM (active); in [7] it was 2.73 µM (active); in assay [8], 1.3 µM (active); in [9], 1.92 µM (active).
Take `CC(=O)c1ccc(N2CCN(S(=O)(=O)c3ccc4c(c3)CCN4C(=O)C3CC3)CC2)cc1`: the results for the IC50 in assay [10] and in [11] were 16.6 µM (active) and > 20 µM (inactive), respectively.
As for `COc1ccc2[nH]cc(C(=O)C(=O)N3CCCCC3)c2c1`, the AC50 in assay [12] was 93.6 µM (active).
Turning to `O=c1[nH]cc(/N=C/c2cc(Cl)cc(Cl)c2O)c(=O)[nH]1`, the results for the AC50 in assay [13], in [14] and in assay [15] were 18.1 µM (active), 0.749 µM (active) and 4.92 µM (active), respectively. The EC50 in assay [16] is 4.14 µM (active).
Take `N#C/C(=C\c1ccc(O)c(O)c1)C(=O)c1ccc(O)c(O)c1`: the IC50 in assay [17] is 0.82 µM (active); in [18], 0.259 µM (active); in assay [19] it was 2.68 µM (active); in assay [20], 4.41 µM (active); in assay [1], 7.13 µM (active); in assay [22], > 100 µM (inactive). Moreover, in assay [23], the IC50 is 9.49 µM (active). Also, the EC50 in assay [21] was 6.36 µM (active). The AC50 in assay [24] is 31.6 µM (inconclusive).

By IC50 is commonly meant the concentration needed to halve the response being measured. The term EC50 denotes the midpoint of the concentration-response curve. One may read the AC50 as the midpoint of the concentration-response curve, whichever way the signal moves.
